Results on 17 molecules are retold here after ChEMBL document CHEMBL4152285, “Structure-based design and profiling of novel 17β-HSD14 inhibitors” (Eur J Med Chem, 2018).

Data set [1] concerns the target T1, 3-hydroxyacyl-CoA dehydrogenase type-2 (Homo sapiens) (UniProt Q99714).
T1 sequence (whole entry): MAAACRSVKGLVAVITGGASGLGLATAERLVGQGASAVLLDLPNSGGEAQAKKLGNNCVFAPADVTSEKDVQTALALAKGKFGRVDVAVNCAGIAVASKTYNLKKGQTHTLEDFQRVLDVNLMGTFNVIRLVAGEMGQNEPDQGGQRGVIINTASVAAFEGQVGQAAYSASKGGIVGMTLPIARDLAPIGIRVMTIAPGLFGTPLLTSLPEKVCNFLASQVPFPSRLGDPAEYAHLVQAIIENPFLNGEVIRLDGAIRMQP
In words: Inhibition of human full length N-terminal GST-tagged 17beta-HSD10 expressed in Escherichia coli BL21 DE3 Codon plus using [6,7-3H]-labeled E2/E2 as substrate and NADH at 1 uM after 30 mins by HPLC based radioflow detection method.

The target in the next data set is T2, Estrogen receptor (Homo sapiens, UniProt P03372).
T2 sequence (P03372 whole entry): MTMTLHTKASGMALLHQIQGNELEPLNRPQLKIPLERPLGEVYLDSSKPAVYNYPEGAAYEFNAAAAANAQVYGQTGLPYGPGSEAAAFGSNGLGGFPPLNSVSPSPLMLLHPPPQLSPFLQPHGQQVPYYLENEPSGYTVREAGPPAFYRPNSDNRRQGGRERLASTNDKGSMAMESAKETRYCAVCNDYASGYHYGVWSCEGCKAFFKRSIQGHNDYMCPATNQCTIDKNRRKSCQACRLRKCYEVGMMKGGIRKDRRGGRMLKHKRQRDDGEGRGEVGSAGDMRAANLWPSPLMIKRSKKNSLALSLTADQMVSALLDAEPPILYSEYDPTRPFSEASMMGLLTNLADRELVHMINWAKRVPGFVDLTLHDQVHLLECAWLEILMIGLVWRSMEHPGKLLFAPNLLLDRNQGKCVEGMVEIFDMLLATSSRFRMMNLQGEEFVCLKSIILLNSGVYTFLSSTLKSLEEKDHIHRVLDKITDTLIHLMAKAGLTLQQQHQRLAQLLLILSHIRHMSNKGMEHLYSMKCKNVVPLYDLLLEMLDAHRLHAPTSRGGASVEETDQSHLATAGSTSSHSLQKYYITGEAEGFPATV
In words: Agonist activity at ERalpha (unknown origin) expressed in human U2OS cells after 24 hrs by luciferase reporter gene assay. Format: cell-based. On the technique in general: A reporter such as luciferase makes a cellular process visible.

The nature of data set [2]: Cytotoxicity against HEK293 cells assessed as decrease in cell viability after 72 hrs by MTT assay. Format: cell-based. Particulars: human, read-out: IG50. On the technique in general: Formazan colour is commonly taken as a measure of viable cells.
The target of data set [3] is T3, 17-beta-hydroxysteroid dehydrogenase type 1 (Homo sapiens) (UniProt P14061).
T3 sequence (whole entry): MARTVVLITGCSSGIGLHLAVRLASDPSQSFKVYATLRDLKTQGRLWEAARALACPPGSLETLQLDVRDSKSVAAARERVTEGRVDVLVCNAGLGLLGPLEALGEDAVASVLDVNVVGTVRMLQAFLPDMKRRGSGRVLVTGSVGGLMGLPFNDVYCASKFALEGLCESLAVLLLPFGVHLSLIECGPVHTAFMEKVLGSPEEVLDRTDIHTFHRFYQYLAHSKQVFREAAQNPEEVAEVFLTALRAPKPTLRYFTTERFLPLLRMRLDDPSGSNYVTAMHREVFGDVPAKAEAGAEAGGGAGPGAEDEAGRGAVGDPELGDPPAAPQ
In words: Inhibition of human placental cytosolic 17beta-HSD1 using [2,4,6,7-3H]-labeled E1/E1 as substrate and NADH at 1 uM after 10 mins by HPLC based radioflow detection method.

A short description of data set [4]: Cytotoxicity against HEK293 cells assessed as cell survival at 20 uM after 72 hrs by MTT assay relative to control. Particulars: human, read-out: Survival. Format: cell-based.
Data set [5] deals with T4, 17-beta-hydroxysteroid dehydrogenase 14 (Homo sapiens, UniProt Q9BPX1).
T4 sequence (Q9BPX1 whole entry): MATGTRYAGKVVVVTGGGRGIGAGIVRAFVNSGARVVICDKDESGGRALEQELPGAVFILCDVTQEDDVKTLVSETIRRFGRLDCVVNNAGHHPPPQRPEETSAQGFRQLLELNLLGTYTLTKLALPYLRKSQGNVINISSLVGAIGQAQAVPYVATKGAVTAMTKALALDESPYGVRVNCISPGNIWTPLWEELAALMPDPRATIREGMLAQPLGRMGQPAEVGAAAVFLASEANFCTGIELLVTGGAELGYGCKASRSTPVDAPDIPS
In words: Binding affinity to recombinant 17beta-HSD14 (unknown origin) expressed in Escherichia coli BL21 pLysS strain using E2 as substrate in presence of NAD measured continuously for 15 mins by fluorimetric method.

Data set [6] has as its target T5, 17-beta-hydroxysteroid dehydrogenase type 2 (Homo sapiens) (UniProt P37059).
T5 sequence (whole entry): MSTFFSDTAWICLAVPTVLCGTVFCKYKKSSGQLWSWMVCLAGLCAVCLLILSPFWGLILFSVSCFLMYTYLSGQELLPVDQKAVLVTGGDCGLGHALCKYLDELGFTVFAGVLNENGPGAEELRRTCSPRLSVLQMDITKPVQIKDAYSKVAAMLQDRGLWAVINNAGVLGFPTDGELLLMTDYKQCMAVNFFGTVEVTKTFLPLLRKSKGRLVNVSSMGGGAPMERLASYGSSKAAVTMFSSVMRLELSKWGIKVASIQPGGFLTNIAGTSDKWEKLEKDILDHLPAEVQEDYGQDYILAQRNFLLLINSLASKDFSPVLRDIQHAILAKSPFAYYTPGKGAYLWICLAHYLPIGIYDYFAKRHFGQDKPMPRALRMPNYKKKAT
In words: Inhibition of human placental cytosolic 17beta-HSD2 using [2,4,6,7-3H]-labeled E2/E2 as substrate and NADH at 1 uM after 10 mins by HPLC based radioflow detection method.

Data set [7] is described as follows: Solubility of the compound in PBS at 200 uM at pH 7.4 measured after 24 hrs. Format: physicochemical.
In data set [8] the target is T6, 17-beta-hydroxysteroid dehydrogenase 14 (Homo sapiens) (UniProt Q9BPX1).
T6 sequence (whole entry): T4 sequence (Q9BPX1 whole entry)
In words: Inhibition of recombinant 17beta-HSD14 (unknown origin) expressed in Escherichia coli BL21 pLysS strain at 2 uM using E2 as substrate in presence of NAD measured continuously for 15 mins by fluorimetric method.

Data set [9] has as its target T7, ERalpha (estrogen receptor) (Homo sapiens, UniProt P03372).
T7 sequence (P03372 whole entry): T2 sequence (P03372 whole entry)
In words: Agonist activity at ERalpha (unknown origin) expressed in human U2OS cells after 24 hrs by luciferase reporter gene assay relative to E2. Format: cell-based. Particulars: U2OS cells expressing ERalpha, read-out: Activity.

In data set [10] the target is T6, 17-beta-hydroxysteroid dehydrogenase 14 (Homo sapiens). In words: Inhibition of recombinant 17beta-HSD14 (unknown origin) expressed in Escherichia coli BL21 pLysS strain at 100 uM using E2 as substrate in presence of NAD measured continuously for 15 mins by fluorimetric method.

In brackets after ≈: the same amount, converted by molar mass. Activity calls are given as the source filed them. No cut-off for these calls is given here. Bounds are passed on as bounds.

`O=C(c1ccc(F)c(O)c1)c1ccc2ccc(-c3nnn[nH]3)cc2n1`: the inhibition result in [1] and in [3] was “inactive” throughout. Further, on Estrogen receptor, the Activity result was “Not Active”. Also, the GI50 at 72 h in data set [2] was over 100000 nM. Further, the viability at 72 h, 20 µM in data set [4] was 80%. Further, the Ki – broadly, the equilibrium dissociation constant of an inhibitor or competing ligand from its target – in data set [5] worked out at 10 nM. Moreover, the inhibition (commonly how much of the control response was suppressed) in data set [6] stood at 52%. Moreover, the solubility (in general, how much of the substance goes into solution per volume) at 24 h, 200 µM in data set [7] was in the range of 50 to 100 µM (≈ 16.8 to 33.5 µg/mL).
In the case of `O=C(c1ccc(F)c(O)c1)c1ccc2ccccc2c1`, the inhibition entry in [1] is “inactive”. The inhibition in [3] turned out to be 64%; in [6], 96%. Also, the Ki in data set [5] turned out to be 6 nM. This molecule came in with a solubility at 24 h, 200 µM in data set [7] of 25 to 50 µM (≈ 6.66 to 13.3 µg/mL).
Regarding `C=C(c1ccc(F)c(O)c1)c1cccc(-c2cccc(O)c2F)n1`, the inhibition entry in data set [1] was “inactive”. Also, the GI50 at 72 h in [2] is over 100000 nM. The inhibition in data set [3] turned out to be 88%; in [6], 100%. The viability at 72 h, 20 µM in data set [4] was 80%. Further, in [5], the Ki is 1.5 nM. In addition, the solubility at 24 h, 200 µM in data set [7] is over 200 µM.
On to `O=C(c1ccc(F)c(O)c1)c1ccc2ccccc2n1`, for which the inhibition entry in data set [1] is “inactive”. Moreover, the inhibition in data set [3] was 6%; in data set [8], 69%; in [6] it was 76%. Also, in data set [5], the inhibition constant Ki amounted to 12 nM. Besides, the solubility at 24 h, 200 µM in [7] was over 200 µM.
On to `CN(C(=O)c1ccc(F)c(O)c1)c1cccc(-c2cccc(O)c2F)n1`, for which, in data set [5], the Ki stood at 2030 nM.
Take `N#Cc1ccc2ccc(C(=O)c3ccc(F)c(O)c3)nc2c1`: the inhibition entry in data set [1] and in data set [3] was “inactive” each time. In addition, the Activity entry at Estrogen receptor is recorded as “Not Active”. Moreover, in [4], the viability at 72 h, 20 µM is 80%. Moreover, the Ki in data set [5] is 9 nM. In data set [6], this molecule came in with an inhibition of 56%. The molecule further had a solubility at 24 h, 200 µM in [7] of 25 to 50 µM (≈ 7.31 to 14.6 µg/mL).
For `Nc1ccc2ccc(C(=O)c3ccc(F)c(O)c3)nc2c1`, in data set [1], the inhibition entry was “inactive”. Also, the inhibition in data set [3] came to 21%; in data set [6] it was 83%. For the same molecule, the Ki in data set [5] came out at 34 nM. Further, the solubility at 24 h, 200 µM in [7] is over 200 µM.
Taken in the same sequence, the figures for `Oc1cc(Nc2cccc(-c3cccc(O)c3F)n2)ccc1F` were “inactive”, 57%, 82%, 47 nM and over 200 µM.
`O=C(Nc1cccc(-c2cccc(O)c2F)n1)c1ccc(F)c(O)c1`: the Ki in [5] worked out at 686 nM.
In the case of `CN(c1ccc(F)c(O)c1)c1cccc(-c2cccc(O)c2F)n1`, the inhibition in data set [1] was 19%; in data set [3] it was 99%; in [6], 100%. Moreover, the Ki in data set [5] worked out at 42 nM. In data set [7], this molecule came in with a solubility at 24 h, 200 µM of over 200 µM.
For `O=C(Nc1ccc(F)c(O)c1)c1cccc(-c2cccc(O)c2F)n1`, the Ki in data set [5] is 336 nM.
Regarding `Cc1cc(-c2ccc3ccc(C(=O)c4ccc(F)c(O)c4)nc3c2)ccc1O`, the inhibition entry in [1] is “inactive”. Besides, the figures for the inhibition in data set [3] and in data set [6] were 11% and 80%, respectively. The Ki in data set [5] worked out at 6 nM. In data set [7], the solubility at 24 h, 200 µM is 13 to 25 µM (≈ 4.85 to 9.33 µg/mL).
In the case of `O=C(c1ccc(F)c(O)c1)c1cccc(-c2cccc(O)c2F)n1`, in data set [1], the inhibition result was “inactive”. For the same molecule, the GI50 at 72 h in data set [2] was over 100000 nM. Besides, the Emax at 24 h in data set [9] worked out at 13%. The inhibition in data set [3] amounted to 8%; in [6], 56%. For the same molecule, the viability at 72 h, 20 µM in [4] was determined as 80%. Further, the solubility at 24 h, 200 µM in data set [7] is over 200 µM.
As to `Oc1cc(Oc2cccc(-c3cccc(O)c3F)n2)ccc1F`, the inhibition in [1] was 17%; in [3] it was 69%; in [6] it was 100%. The Ki in data set [5] came out at 58 nM. The solubility at 24 h, 200 µM in data set [7] was over 200 µM.
In the case of `COc1cc(C(=O)c2ccc3ccccc3n2)ccc1F`, the solubility at 24 h, 200 µM in data set [7] was in the range of 100 to 200 µM (≈ 28.1 to 56.3 µg/mL). The inhibition in data set [10] is 21%.
As to `O=C(c1ccc(F)c(O)c1)c1ccc2cc(O)ccc2n1`, in data set [1], the inhibition entry was “inactive”. Also, the GI50 at 72 h in data set [2] was over 100000 nM. For the same molecule, the inhibition was 20% in data set [3] and 71% in [6]. Also, in [4], the viability at 72 h, 20 µM was found to be 80%. Further, the Ki in data set [5] was 119 nM. This molecule also had a solubility at 24 h, 200 µM in data set [7] of over 200 µM.
For `Cc1ccc2nc(C(=O)c3ccc(F)c(O)c3)ccc2c1`, in data set [1], the inhibition entry is “inactive”. In addition, the inhibition in data set [3] amounted to 12%; in data set [6], 78%. In [4], the viability at 72 h, 20 µM came to 80%. Moreover, in data set [5], the Ki turned out to be 6 nM. This molecule returned a solubility at 24 h, 200 µM in data set [7] of 25 to 50 µM (≈ 7.03 to 14.1 µg/mL).
